Measured values taken from ChEMBL document CHEMBL5576055, “Design, synthesis, and biological evaluation of chalcone acetamide derivatives against triple negative breast cancer” (Bioorg Med Chem Lett, 2024).
pIC50: −log10 of the molar value. The source made the active and inactive calls. The calls are words filed in the database; no cut-off is given here.

Columns and labels:
MDA-MB-231 [1] = test: Antiproliferative activity against human MDA-MB-231 cells assessed as inhibition of cell growth measured after 48 hrs by SRB method; assay type: functional, cell-based; details: MDA-MB-231, 48 h
MDA-MB-231 [2] = test: Inhibition of colony formation in human MDA-MB-231 cells assessed as reduction in number of colonies at 4 to 16 uM incubated for 24 hrs; assay type: functional, cell-based; details: dose 4-16 µM
[3] = Selectivity index, ratio of IC50 for HEK293 cells to IC50 for human MDA-MB-231 cells; assay type: toxicity; details: HEK293 cells versus MDA-MB-231 cells, read-out: Ratio IC50
[4] = Antiproliferative activity against HEK293 cells assessed as inhibition of cell growth measured after 48 hrs by SRB method; assay type: toxicity, cell-based; details: human
MDA-MB-231 [5] = test: Inhibition of colony formation in human MDA-MB-231 cells assessed as reduction in colony size at 4 to 16 uM incubated for 24 hrs; assay type: functional, cell-based; details: dose 4-16 µM
MDA-MB-231 [6] = test: Induction of apoptosis in human MDA-MB-231 cells assessed as chromatin condensation at 4 to 16 uM measured after 48 hrs by DAPI staining based fluorescent microscopic analysis; assay type: functional, cell-based; details: dose 4-16 µM
MDA-MB-231 [7] = test: Inhibition of colony formation in human MDA-MB-231 cells incubated for 24 hrs; assay type: functional, cell-based; details: dose 4-16 µM
MDA-MB-231 [8] = test: Antiproliferative activity against human MDA-MB-231 cells assessed as inhibition of cell growth at 20 uM by SRB method relative to control; assay type: functional; parameters: scale not given: the % may be the effect or the level left
A549 [9] = test: Antiproliferative activity against human A549 cells assessed as inhibition of cell growth measured after 48 hrs by SRB method; assay type: functional, cell-based; details: A549, 48 h
MDA-MB-231 [10] = test: Induction of apoptosis in human MDA-MB-231 cells assessed as increase in caspase-3 expression by Western blot analysis; assay type: functional, cell-based
[11] = Selectivity index, ratio of IC50 for HEK293 cells to IC50 for human MCF7 cells; assay type: toxicity; details: HEK293 cells versus MCF7 cells, read-out: Ratio IC50
HCT-116 [12] = test: Antiproliferative activity against human HCT-116 cells assessed as inhibition of cell growth at 20 uM by SRB method relative to control; assay type: functional; parameters: scale not given: the % may be the effect or the level left
Cell membrane = test: Induction of mitochondrial membrane potential loss in human MDA-MB-231 cells assessed as reduction in fluorescence measured after 48 hrs by rhodamine-123 dye based fluorescence assay; details: dose 4-16 µM
MDA-MB-231 [13] = test: Induction of apoptosis in human MDA-MB-231 cells assessed as upregulation of bax expression by Western blot analysis; assay type: functional, cell-based
MDA-MB-231 [14] = test: Induction of apoptosis in human MDA-MB-231 cells assessed as reduction in Bcl-2 expression by Western blot analysis; assay type: functional, cell-based
HCT-116 [15] = test: Antiproliferative activity against human HCT-116 cells assessed as inhibition of cell growth measured after 48 hrs by SRB method; assay type: functional, cell-based; details: HCT-116, 48 h
MCF7 [16] = test: Antiproliferative activity against human MCF7 cells assessed as inhibition of cell growth at 20 uM by SRB method relative to control; assay type: functional; parameters: scale not given: the % may be the effect or the level left
MCF7 [17] = test: Antiproliferative activity against human MCF7 cells assessed as inhibition of cell growth measured after 48 hrs by SRB method; assay type: functional, cell-based; details: MCF7, 48 h
A549 [18] = test: Antiproliferative activity against human A549 cells assessed as inhibition of cell growth at 20 uM by SRB method relative to control; assay type: functional; parameters: scale not given: the % may be the effect or the level left
MDA-MB-231 [19] = test: Induction of apoptosis in human MDA-MB-231 cells assessed as effect on bax/bcl-2 ratio by Western blot analysis; assay type: functional, cell-based
[20] = Selectivity index, ratio of IC50 for HEK293 cells to IC50 for human MDA-MB-468 cells; assay type: toxicity; details: HEK293 cells versus MDA-MB-468 cells, read-out: Ratio IC50
MDA-MB-231 [21] = test: Induction of apoptosis in human MDA-MB-231 cells assessed as cell blebbing at 4 to 16 uM measured after 48 hrs by DAPI staining based fluorescent microscopic analysis; assay type: functional; details: dose 4-16 µM
MDA-MB-468 [22] = test: Antiproliferative activity against human MDA-MB-468 cells assessed as inhibition of cell growth measured after 48 hrs by SRB method; assay type: functional, cell-based; details: MDA-MB-468, 48 h
MDA-MB-468 [23] = test: Antiproliferative activity against human MDA-MB-468 cells assessed as inhibition of cell growth at 20 uM by SRB method relative to control; assay type: functional; parameters: scale not given: the % may be the effect or the level left
MDA-MB-231 [24] = test: Induction of ROS generation in human MDA-MB-231 cells measured after 48 hrs by DCFDA staining based fluorescent microscopic analysis; assay type: functional, cell-based; details: dose 4-16 µM
MDA-MB-231 [25] = test: Antiproliferative activity against human MDA-MB-231 cells; assay type: functional, cell-based

With `COc1ccc(/C=C/C(=O)c2ccc(OCC(=O)N3CCCC3)cc2)cc1` the pIC50 (MDA-MB-231 [1]) was 5.03, the inhibition (MDA-MB-231 [2]) was “Active” and the selectivity ratio [3] was 4.14. The IC50 at 48 h [4] was 39.1 µM, the inhibition (MDA-MB-231 [5]) was “Active” and the Activity (MDA-MB-231 [6]) was “Active”. The inhibition (MDA-MB-231 [7]) was “Dose-Dependent Effect”, the Activity (MDA-MB-231 [8]) was ~60% and the pIC50 (A549 [9]) was 4.77. For the same molecule, the Activity (MDA-MB-231 [10]) was “Active”, the selectivity ratio [11] was 2.41 and the Activity (HCT-116 [12]) was ~60%. For the same molecule, the Activity (Cell membrane) was “Dose-Dependent Effect”, the Activity (MDA-MB-231 [13]) was “Active” and the Activity (MDA-MB-231 [14]) was “Active”. For the same molecule, the pIC50 (HCT-116 [15]) was 4.74, the Activity (MCF7 [16]) was ~60% and the pIC50 (MCF7 [17]) was 4.79. For the same molecule, the Activity (A549 [18]) was ~60%, the Activity (MDA-MB-231 [19]) was “Active” and the selectivity ratio [20] was 3.85. For the same molecule, the Activity (MDA-MB-231 [21]) was “Active”, the pIC50 (MDA-MB-468 [22]) was 4.99 and the Activity (MDA-MB-468 [23]) was ~60%. The Activity (MDA-MB-231 [24]) was “Dose-Dependent Effect”.
With `COc1cccc(C(=O)/C=C/c2ccc(N(CCCl)CCCl)cc2)c1` the pIC50 (MDA-MB-231 [25]) was 2.40.
`COc1ccc(/C=C/C(=O)c2ccc(OCC(=O)NCc3cc(OC)c(OC)c(OC)c3)cc2)cc1` showed an IC50 at 48 h [4] of 15.2 µM and a pIC50 (HCT-116 [15]) of 4.98.
`COc1ccc(/C=C/C(=O)c2ccc(OCC(=O)N3CCCCC3)cc2)cc1` showed an IC50 at 48 h [4] of 10.8 µM, a pIC50 (HCT-116 [15]) of 4.76 and a pIC50 (MCF7 [17]) of 4.64.
With `COc1ccc(/C=C/C(=O)c2ccc(OCC(=O)Nc3ncccc3Cl)cc2)cc1` the pIC50 (MDA-MB-231 [1]) was 4.62, the pIC50 (A549 [9]) was 4.45 and the pIC50 (MDA-MB-468 [22]) was 4.60.
Work on `COc1ccc(/C=C/C(=O)c2ccc(OCC(=O)NC3CCCCC3)cc2)cc1` yielded a pIC50 (HCT-116 [15]) of 4.72.
For `COc1ccc(/C=C/C(=O)c2ccc(OCC(=O)N3CCSCC3)cc2)cc1`, the pIC50 (A549 [9]) was 4.34 and the pIC50 (HCT-116 [15]) was 4.82.
Work on `COc1ccc(/C=C/C(=O)c2ccc(OCC(=O)NCCc3ccccc3)cc2)cc1` yielded an IC50 at 48 h [4] of 23.4 µM.
